For test [1], the system named is angiotensin II. As to conditions: reported in the literature; cited from earlier work.
Test [2] relates to Pressor Response to A II. Put plainly: Inhibitory Effect of the Compound on Pressor Action of A-II in rats. It is filed as in vivo, Jcl: SD rats. The settings on record: Rattus norvegicus, po. The text has this: Inhibitory Effect of the Compound of the Present Invention on Pressor Action of A-II
Jcl: SD rats (9 week old, male) were used. On the day previous to the experiment, these animals were applied with cannulation into the femoral artery and vein under anesthesia with pentobarbital Na. The animals were fasted but allowed to access freely to drinking water until the experiment was started. Just on the day of conducting the experiment, the artery cannula was connected with a blood-pressure transducer, and the average blood pressure was recorded by means of polygraph. Before administration of the drug, the pressor action due to intravenous administration of A-II (100 ng/kg) as the control was measured. The drugs were orally administered, and then, at each point of the measurement, A-II was administered intravenously, and the pressor action was similarly measured. By comparing the pressor action before and after administration of the drug, the percent inhibition by the drug on A-II-induced pressor action was evaluated.

Test [3] has as its target T1, A-II-receptor (Bos taurus, UniProt P25104).
T1 construct: An A-II-receptor was prepared from the membrane fraction of bovine adrenal cortex; from tissue; host or cells: bovine adrenal cortex, membrane fraction
T1 sequence (P25104 1-359): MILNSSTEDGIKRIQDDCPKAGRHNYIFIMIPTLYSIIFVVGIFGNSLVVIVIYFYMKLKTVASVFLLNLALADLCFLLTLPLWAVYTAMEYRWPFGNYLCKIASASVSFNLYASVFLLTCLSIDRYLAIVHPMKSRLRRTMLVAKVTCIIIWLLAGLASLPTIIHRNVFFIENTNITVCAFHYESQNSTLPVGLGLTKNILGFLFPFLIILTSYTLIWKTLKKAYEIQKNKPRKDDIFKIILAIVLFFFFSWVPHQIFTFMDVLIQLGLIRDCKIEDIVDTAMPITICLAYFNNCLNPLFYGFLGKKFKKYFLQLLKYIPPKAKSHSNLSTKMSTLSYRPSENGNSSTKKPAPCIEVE
Put plainly: Inhibition of Binding of Angiotensin-II to Angiotensin Receptor (125I-A-II, membrane fraction of bovine adrenal cortex). As to conditions: room temperature, one hour. The procedure: Inhibition of Binding of Angiotensin-II to Angiotensin Receptor
An experiment of inhibition on the binding of angiotensin-II (A-II) to A-II-receptor was conducted by modifying the method of Douglas et al. [Endocrinology, 102, 685-696 (1978)]. An A-II-receptor was prepared from the membrane fraction of bovine adrenal cortex.
The compound of the present invention (10^-6 M to 10^-8 M) and ^125 I-A-II (1.85 kBq/50 μl) were added to the receptor membrane fraction, and the mixture was incubated at room temperature for one hour. The receptor-bound and free ^125 I-A-II were separated through a filter (Whatman GF/B filter), and the radioactivity of ^125 I-A-II bound to the receptor was measured.

Consider `CNCC(=O)N[C@@H](CCCN=C(N)N)C(=O)N[C@H](C(=O)N[C@@H](Cc1ccc(O)cc1)C(=O)N[C@H](C(=O)N[C@@H](Cc1cnc[nH]1)C(=O)N1CCC[C@H]1C(=O)N[C@@H](C)C(=O)O)C(C)C)C(C)C` [saralasin], for which the “angiotensin II antagonistic activity” value in test [1] is “potent angiotensin II antagonistic activity”.

Regarding `CCCc1cc(=O)n(CC)c(=O)n1Cc1ccc(-c2ccccc2-c2nn[nH]n2)cc1` [compound 23], the inhibition in vivo at 30 mg/kg in test [2] is at least 70%. In test [3], this compound came in with an IC50 of 20 nM.

In test [2], `CCCNc1cc(=O)n(CCC)c(=O)n1Cc1ccc(-c2ccccc2-c2nn[nH]n2)cc1` [compound 14] gave an inhibition in vivo at 30 mg/kg of under 30%. The 50% inhibitory concentration (IC50) in test [3] stood at 340 nM.

For the compound `CCCCn1c(=O)cc(CCC)n(Cc2ccc(-c3ccccc3-c3nn[nH]n3)cc2)c1=O` [compound 26], the inhibition in vivo at 30 mg/kg in test [2] was at least 70%. For the same compound, the IC50 in test [3] worked out at 20 nM.

For `CCCOc1cc(=O)n(CCC)c(=O)n1Cc1ccc(-c2ccccc2-c2nnn[nH]2)cc1` [compound 18], in test [2], the inhibition in vivo at 30 mg/kg was at least 70%. For the same compound, the 50% inhibitory concentration (IC50) in test [3] is 140 nM.

In test [2], `CCCc1cc(=O)n(CCC)c(=O)n1Cc1ccc(-c2ccccc2-c2nn[nH]n2)cc1` [compound 25] returned an inhibition in vivo at 30 mg/kg of at least 70%. The compound also came in with an IC50 in test [3] of 20 nM.

`CCCc1cc(=O)n(CC(=O)OC)c(=O)n1Cc1ccc(-c2ccccc2-c2nn[nH]n2)cc1` [compound 27]: in test [2], the inhibition in vivo at 30 mg/kg was at least 70%. This compound displayed an IC50 in test [3] of 10 nM.

`CCCn1c(=O)cc(OCC)n(Cc2ccc(-c3ccccc3-c3nn[nH]n3)cc2)c1=O` [compound 8]: in test [2], the inhibition in vivo at 30 mg/kg is at least 70%. Moreover, in test [3], the IC50 stood at 60 nM.

Regarding `CCCn1c(=O)cc(SC)n(Cc2ccc(-c3ccccc3-c3nn[nH]n3)cc2)c1=O` [compound 1], the IC50 in test [3] amounted to 860 nM.

`CCCn1c(=O)cc(SC2CCCCC2)n(Cc2ccc(-c3ccccc3-c3nn[nH]n3)cc2)c1=O` [compound 5]: the inhibition in vivo at 30 mg/kg in test [2] is 30 to 50%. In test [3], this compound displayed an IC50 of 320 nM.

As for `CCCCn1c(=O)cc(Sc2ccccc2)n(Cc2ccc(-c3ccccc3-c3nn[nH]n3)cc2)c1=O` [compound 10], the inhibition in vivo at 30 mg/kg in test [2] is under 30%. Further, the IC50 in test [3] worked out at 320 nM.

For `CCCCSc1cc(=O)n(CCC)c(=O)n1Cc1ccc(-c2ccccc2-c2nn[nH]n2)cc1` [compound 4], in test [2], the inhibition in vivo at 30 mg/kg was at least 70%. Further, the IC50 in test [3] is 40 nM.

In test [2], `CCCCn1c(=O)cc(SCCC)n(Cc2ccc(-c3ccccc3-c3nn[nH]n3)cc2)c1=O` [compound 9] displayed an inhibition in vivo at 30 mg/kg of at least 70%. Moreover, in test [3], the IC50 is 40 nM.

Turning to `CCCn1c(=O)cc(SCC)n(Cc2ccc(-c3ccccc3-c3nn[nH]n3)cc2)c1=O` [compound 2], in test [2], the inhibition in vivo at 30 mg/kg was at least 70%. The same compound displayed an IC50 in test [3] of 20 nM.

For `CCCCCSc1cc(=O)n(CCC)c(=O)n1Cc1ccc(-c2ccccc2-c2nn[nH]n2)cc1` [compound 6], the inhibition in vivo at 30 mg/kg in test [2] fell in the range of 30 to 50%. Further, the half-inhibitory concentration (IC50) in test [3] turned out to be 20 nM.

Consider `CCCc1cc(=O)n(CC(=O)OCC)c(=O)n1Cc1ccc(-c2ccccc2-c2nn[nH]n2)cc1` [compound 28], for which the inhibition in vivo at 30 mg/kg in test [2] was at least 70%. Further, the IC50 in test [3] was 20 nM.

The compound `CCCn1c(=O)cc(SCc2ccccc2)n(Cc2ccc(-c3ccccc3-c3nn[nH]n3)cc2)c1=O` [compound 7] showed an inhibition in vivo at 30 mg/kg in test [2] of under 30%. Further, the IC50 in test [3] amounted to 330 nM.

`CCCSc1cc(=O)n(CCC)c(=O)n1Cc1ccc(-c2ccccc2-c2nnn[nH]2)cc1` [compound 3]: the IC50 in test [3] was 20 nM.

One may read the inhibition in vivo as the share of the control response that was lost under treatment. For orientation: IC50 means the concentration that inhibits the measured activity by half. High values mean a need for much substance, low ones inhibition by little substance.

The values are drawn from patent publication US5162326A, “Pyrimidinedione derivatives, their production and use” (Takeda Chemical Industries, Ltd., priority 1990, dated 1992).
